From patent US9833466B2, “Treatment of leukemia with histone deacetylase inhibitors” (Acetylon Pharmaceuticals Inc., priority 2014, dated 2017)
Entries after “also recorded” stand apart in the source; their conditions may differ.

What was measured:
GATA2 = GATA2 expression in MV4-11 AML cell line; assay type: cell-based; conditions: 48 h and 72 h
Protocol: FIG. 16. […] (A-B) MV4-11 cells were plated at 2×10^5 cells/ml at indicated doses for 48 h and 72 h. RNA was prepared and analyzed for GATA2 and GAPDH as internal control.

MV4-11 cells = test: MV4-11 tumor growth and survival in Ncr nu/nu mice; assay type: in vivo
Protocol: Ncr nu/nu mice implanted with MV4-11 cells were treated with vehicle, azacitidine (5 mg/kg IV q3d), or azacitidine (5 mg/kg IV q3d) plus Compound A (50 mg/kg IP 5/2/5/2/5/2/5) for up to 4 weeks. (A) Tumor volume was measured twice weekly and the mean tumor volume±SD is plotted. (B) Fold tumor volume change on day 19 relative to day 1 is plotted. (C) Survival curve was plotted.

[1] = system: AML blast freshly derived from bone marrow of AML patients; test: Ex vivo proliferation of AML blast freshly derived from bone marrow; assay type: cell-based; conditions: Homo sapiens; 5 bone marrow samples from AML patients; flow cytometry at 96 h; single agent; read-out: median IC50, live AML cells
Protocol: (A-B), 5 bone marrow samples derived from AML patients were treated with increasing concentrations of azacitidine, Compound A and Compound J and live AML cells were quantified by flow cytometry at 96 h. IC50 values (A) and AUC values (B) were plotted. […] The relative potency of the three drugs are Compound J>azacitidine>Compound A, consistent with the result in FIG. 2. (C) 5 bone marrow samples derived from AML patients were treated with increasing doses of azacitidine with Compound J and live AML cells were quantified by flow cytometry at 96 h. The combination index (Comb IDX) were calculated and median Comb IDX values were plotted.

multiple myeloma = conditions: preclinical models of multiple myeloma; cited from earlier work
[2] = Phase I trials; cited from earlier work
HDAC6 = biological target: T1, HDAC6 (Homo sapiens, UniProt Q9UBN7); test: HDAC enzyme assays (selectivity for HDAC6); assay type: biochemical
T1 sequence (Q9UBN7 1-1215): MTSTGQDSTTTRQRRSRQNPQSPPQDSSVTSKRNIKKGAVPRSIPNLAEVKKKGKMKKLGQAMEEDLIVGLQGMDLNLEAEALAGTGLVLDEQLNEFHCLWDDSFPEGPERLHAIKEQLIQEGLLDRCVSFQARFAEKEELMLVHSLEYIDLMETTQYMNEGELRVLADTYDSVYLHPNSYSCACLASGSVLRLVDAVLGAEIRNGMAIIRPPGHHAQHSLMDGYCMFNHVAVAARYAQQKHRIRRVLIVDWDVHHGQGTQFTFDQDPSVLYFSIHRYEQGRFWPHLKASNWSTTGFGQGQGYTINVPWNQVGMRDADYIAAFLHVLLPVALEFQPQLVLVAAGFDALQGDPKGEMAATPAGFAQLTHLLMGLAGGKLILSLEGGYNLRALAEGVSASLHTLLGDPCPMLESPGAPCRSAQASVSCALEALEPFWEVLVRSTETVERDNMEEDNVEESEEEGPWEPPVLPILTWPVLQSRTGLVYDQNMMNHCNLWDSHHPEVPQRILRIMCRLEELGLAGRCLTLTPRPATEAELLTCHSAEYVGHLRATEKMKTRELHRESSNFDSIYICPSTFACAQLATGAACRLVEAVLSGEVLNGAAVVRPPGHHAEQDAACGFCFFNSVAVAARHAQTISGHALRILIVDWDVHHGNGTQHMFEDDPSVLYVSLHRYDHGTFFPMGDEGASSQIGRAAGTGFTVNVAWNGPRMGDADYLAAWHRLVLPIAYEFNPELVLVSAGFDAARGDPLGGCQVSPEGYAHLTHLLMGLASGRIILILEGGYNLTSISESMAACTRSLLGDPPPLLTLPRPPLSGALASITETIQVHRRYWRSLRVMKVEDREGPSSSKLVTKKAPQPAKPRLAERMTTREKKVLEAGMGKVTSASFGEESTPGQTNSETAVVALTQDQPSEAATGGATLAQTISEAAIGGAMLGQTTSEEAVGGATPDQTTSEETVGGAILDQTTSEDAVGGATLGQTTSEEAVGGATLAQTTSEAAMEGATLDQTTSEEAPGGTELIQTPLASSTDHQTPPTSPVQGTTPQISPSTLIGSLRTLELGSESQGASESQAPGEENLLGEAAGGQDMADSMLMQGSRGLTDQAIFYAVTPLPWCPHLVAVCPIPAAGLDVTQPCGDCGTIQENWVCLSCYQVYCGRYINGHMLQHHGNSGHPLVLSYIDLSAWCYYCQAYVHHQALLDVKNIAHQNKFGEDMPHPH
Protocol: Compounds for testing are diluted in DMSO to 50 fold the final concentration and a ten point three fold dilution series is made. The compounds are diluted in assay buffer (50 mM HEPES, pH 7.4, 100 mM Kill, 0.001% Tween-20, 0.05% BASE, 20 μM TEC) to 6 fold their final concentration. The HDAC enzymes (purchased from BPS Biosciences) are diluted to 1.5 fold their final concentration in assay buffer. The dipeptide substrate and trypsin at 0.05 μM final concentration are diluted in assay buffer at 6 fold their final concentration. The final enzyme concentrations to use in these assays are 3.3 ng/ml (HDAC1), 0.2 ng/ml (HDAC2), 0.08 ng/ml (HDAC3) and 2 ng/ml (HDAC6). The final substrate concentrations to use are 16 μM (HDAC1), 10 μM (HDAC2), 17 μM (HDAC3) and 14 μM (HDAC6). Five μ1 of compound and 20 μl of enzyme are added to wells of a black, opaque 384 well plate in duplicate. Enzyme and compound are incubated together at room temperature for 10 min. Five μ1 of substrate is added to each well, the plate is shaken for 60 seconds and placed into a Victor 2 microliter plate reader. The development of fluorescence is monitored for 60 min. and the linear rate of the reaction is calculated. The IC50 is determined using Graph Pad Prism by a four parameter curve fit.

[3] = Compound A 50 mg/kg IP plus azacitidine 5 mg/kg IV q3d, vs azacitidine or vehicle alone

In the case of `Nc1ccc(-c2cccs2)cc1NC(=O)c1ccc2c(c1)cc(C1CC1)n2CCN1CCOCC1` [Compound E, N-(2-amino-5-(thiophen-2-yl)phenyl)-2-cyclopropyl-1-(2-morpholinoethyl)-1H-indole-5-carboxamide], the GATA2 expression (GATA2; combination of azacitidine and Compound E) is reported as “further induced GATA2 expression; also recorded: synergistically induce GATA2 expression” and the GATA2 level (GATA2; single agent at 1 uM) is reported as “induced GATA2 level”.
With `O=C(CCCCCCNC(=O)c1cnc(N(c2ccccc2)c2ccccc2)nc1)NO` [Compound A, 2-(diphenylamino)-N-(7-(hydroxyamino)-7-oxoheptyl)pyrimidine-5-carboxamide] the survival (MV4-11 cells; [3]) was “further enhanced; also recorded: increased survival in vivo”, the tumor growth (MV4-11 cells; [3]) was “further enhanced; also recorded: reduced tumor growth in vivo” and the “fold tumor volume change” value (MV4-11 cells; Compound A plus azacitidine vs azacitidine or vehicle alone, day 19 relative to day 1) was “reduced the fold tumor volume change”. For the same compound, the IC50 [1] was 7.2 µM, the “synergy with bortezomib and immunomodulatory agents” value (multiple myeloma) was “synergizes with bortezomib” and the safety and tolerability [2] was “improved safety and tolerability profile”.
In the case of `O=C(CCCCCCNC(=O)c1cnc(N(c2ccccc2)c2ccccc2Cl)nc1)NO` [Compound B, 2-((2-chlorophenyl)(phenyl)amino)-N-(7-(hydroxyamino)-7-oxoheptyl)pyrimidine-5-carboxamide], the “selective for HDAC6” value (HDAC6) is reported as “about 10 times”.
